Assay results from patent publication US8642065B2, “Osteogenic promoting implants and methods of inducing bone growth” (DePuy Synthes Products, LLC, priority 2011, dated 2014).
Where a name gives a salt, the structure may show the parent alone. Read-outs that look alike come from different tables or passages of the source. Blank lines part the entries; values can stand above or below the molecule they belong to.

Assays:
[1] = test system: primary human mesenchymal stem cells (MSCs); test: Osteoinductive (OI) alkaline phosphatase (ALP) assay, dose response, ALP normalised to DNA; type: cell-based
From the text: (§1) Samples from several classes of small molecule compounds including, corticosteroids, glucocorticoids, oxysterols, compounds that impact the HMG coA reductase pathway and compounds that upregulate intracellular cAMP were screened for osteoinductive potential with an alkaline phosphatase (ALP) assay in primary human mesenchymal stem cells (MSCs). Sample compounds were screened over a dose range in a multiwell plate format using DNA to normalize the ALP response as a function of cell number. These dose response curves allowed for the determination of an EC50 to measure relative potency of the osteogenic response between compounds. FIG. 1 is a representative dose response curve for two of the corticosteroid compounds tested, clobetasol propionate and dexamethasone. In addition to the functional analysis, certain identified compounds were run through an in vitro L929 cytotoxicity assay to determine a CC50.

[2] = In vitro L929 cytotoxicity assay (CTG); type: cell-based; details: mouse, L929 cells; read-out: Cytotox (CTG) CC50
From the text: as §1

MSCs [3] = test: Relative potency: ALP assay after short exposure times, then basal media to assay completion; type: cell-based, human; details: for EC50: Homo sapiens, MSCs, then basal media; for Max Osteogenic Response: time range to reach the full response of the ALP assay control (dexamethasone at 10 nM for 6 days)
Protocol: One part of this technology may involve coating an osteoconductive scaffold with an osteoinductive small molecule compound to thereby deliver the compound locally when the scaffold is implanted. Consequently, the optimal time and concentration profile required for the compound to remain at the site in order to influence an osteogenic outcome was determined. Initially, potency was determined by looking at exposure over 6 days. In order to better understand the optimal exposure profile, MSCs were treated over a series of dose ranges for exposure times starting at 1 hour out to 4 days, after which the compound treated media was removed and the cells were allowed to continue to assay completion under basal media conditions. This allowed for the determination of the relative potency of the compounds over short exposure periods and gave an indication of the release requirements that would be necessary to achieve the desired osteogenic outcome.
FIG. 2 is a representative relative potency graph of a corticosteroid, fluticasone propionate, based on the results shown in Table 2.

MSCs [4] = test: In vitro 3-D efficacy: ALP RNA expression in MSCs seeded on coated Scaffold I; type: cell-based; details: compound precoated on Scaffold I, MSCs cultured three days, versus basal conditions
Protocol: The osteoinductive potential of selected small molecule compounds were determined in vitro by seeding MSCs onto a three dimensional b-TCP polymer composite scaffold, Scaffold I, which had been coated with selected compounds prior to seeding. These cells were allowed to culture for a period of time after which they were assayed for alkaline phosphatase (ALP) RNA content, an early marker of osteogenic differentiation. FIG. 7 is a graphical illustration showing the amount of ALP RNA expression in the MSCs, expressed as a fold increase over basal conditions (standard culture conditions). In this example, dexamethasone (a control for the assay) was added to the culture media in solution whereas in all other cases the compounds were precoated on to Scaffold I followed by addition of the MSCs. The cells were then cultured for three days and assayed for their level of osteogenic response via ALP RNA expression.

L929 = test: In vitro L929 cytotoxicity assay (CTG); type: cell-based; details: L929 cells; read-out: Cytotox (CTG) CC50
From the text: as §1

[5] = primary human MSCs, exposure over 6 days, read-out: OI Assay (ALP) EC50
[6] = Homo sapiens, Mesenchymal stem cells, 144 h, primary human MSCs, exposure over 6 days, read-out: OI Assay (ALP) EC50
[7] = Homo sapiens, Mesenchymal stem cells, 144 h, MSCs, 6 days exposure, read-out: EC50 6 days
[8] = 1 hr exposure, read-out: EC50 1 hr.
[9] = 24 hr exposure, read-out: EC50 24 hr.
[10] = 72 hr exposure, read-out: EC50 72 hr
[11] = 4 hr exposure, read-out: EC50 4 hr.

Structure (SMILES): CC[C@H](CC[C@@H](C)[C@H]1CC[C@H]2[C@@H]3CC=C4C[C@@H](O)CC[C@]4(C)[C@H]3CC[C@]12C)C(C)C [β-Sitosterol]
EC50 [1, 5]: > 12000 nM

Structure (SMILES): C[C@]12C=CC(=O)C=C1CC[C@H]1[C@@H]3C[C@@H](O)[C@](O)(C(=O)CO)[C@@]3(C)C[C@H](O)[C@@]12F [Triamcinolone]
EC50 [1, 6]: 4.13 nM

Structure (SMILES): O=C(O)c1ccc(CCN2CCN(C/C=C/c3ccc(Cl)cc3)CC2)cc1 [bm15766 sulfate]
EC50 [1, 5]: > 10000 nM

Structure (SMILES): CC1(C)O[C@@H]2C[C@H]3[C@@H]4C[C@H](F)C5=CC(=O)CC[C@]5(C)[C@H]4[C@@H](O)C[C@]3(C)[C@]2(C(=O)CO)O1 [Flurandrenolide]
EC50 [1, 6]: 1.56 nM

Structure (SMILES): CC(C)CC[C@H](O)[C@@H](C)[C@H]1CC[C@H]2[C@@H]3CC=C4C[C@@H](O)CC[C@]4(C)[C@H]3CC[C@]12C [22(S)-hydroxy-cholesterol]
EC50 [1, 6]: > 12000 nM

Structure (SMILES): OCCN(CCO)c1nc(N2CCCCC2)c2nc(N(CCO)CCO)nc(N3CCCCC3)c2n1 [Dipyridamole]
CC50 [2]: > 30 µM

Structure (SMILES): CC(C)Cn1c(=O)n(C)c(=O)c2[nH]cnc21 [3-isobutyl 1-methylxanthine (IBMX), 3-isobutyl 1-methylxanthine]
EC50 [1, 6]: > 10000 nM

Structure (SMILES): C[C@H]1C[C@H]2[C@@H]3CCC4=CC(=O)C=C[C@]4(C)[C@@]3(F)[C@@H](O)C[C@]2(C)[C@@]1(O)C(=O)CO [Betamethasone]
EC50 [1, 6]: 1.96 nM

Structure (SMILES): CC(=O)OCC(=O)[C@@]1(OC(C)=O)[C@@H](C)C[C@H]2[C@@H]3C[C@H](F)C4=CC(=O)C=C[C@]4(C)[C@@]3(F)[C@@H](O)C[C@@]21C [Diflorasone Diacetate]
EC50 [1, 6]: 1.38 nM

Structure (SMILES): CC(=O)OCC(=O)[C@@]12N=C(C)O[C@@H]1C[C@H]1[C@@H]3CCC4=CC(=O)C=C[C@]4(C)[C@H]3[C@@H](O)C[C@@]12C [Deflazacort]
EC50 [1, 6]: 9.85 nM

EC50 (MSCs [3]; [8]): 2.29 nM | EC50 (MSCs [3]; [9]): 1.26 nM | EC50 (MSCs [3]; [10]): 0.115 nM
Structure (SMILES): CC1(C)O[C@@H]2C[C@H]3[C@@H]4CCC5=CC(=O)CC[C@]5(C)[C@@]4(F)[C@@H](O)C[C@]3(C)[C@]2(C(=O)CCl)O1 [Halcinonide]
EC50 [1, 7]: 0.235 nM | EC50 [1, 6]: 0.235 nM | CC50 [2]: > 10 µM | Max Osteogenic Response (MSCs [3]): 72 h | ALP RNA expression (osteogenic differentiation of MSCs) (MSCs [4]): upregulated osteogenic differentiation of MSCs significantly

EC50 (MSCs [3]; [8]): 0.0605 nM | EC50 (MSCs [3]; [11]): 0.019 nM | EC50 (MSCs [3]; [9]): 0.0804 nM | EC50 (MSCs [3]; [10]): 0.00371 nM
Structure (SMILES): CCC(=O)O[C@]1(C(=O)CCl)[C@@H](C)C[C@H]2[C@@H]3CCC4=CC(=O)C=C[C@]4(C)[C@@]3(F)[C@@H](O)C[C@@]21C [Clobetasol propionate]
EC50 [1, 7]: 0.012 nM | EC50 [1, 6]: 0.012 nM | CC50 [2]: > 30 µM | Max Osteogenic Response (MSCs [3]): 72 h | ALP RNA expression (osteogenic differentiation of MSCs) (MSCs [4]): upregulated osteogenic differentiation of MSCs significantly

Structure (SMILES): COC(=O)[C@H](CC(C)C)NC(=O)c1ccc(NC[C@@H](N)CS)cc1-c1ccccc1 [GGTI-286]
EC50 [1, 5]: > 12000 nM

Structure (SMILES): C[C@]12CCC(=O)C=C1CC[C@@H]1[C@@H]2[C@@H](O)C[C@]2(C=O)[C@@H](C(=O)CO)CC[C@@H]12 [Aldosterone 98%, Aldosterone]
EC50 [1, 6]: 287 nM

Structure (SMILES): COC(=O)[C@H](CCSC)NC(=O)c1ccc(NC[C@@H](N)CS)cc1-c1ccccc1 [FTI-277 trifluoroacetate salt]
EC50 [1, 5]: > 12000 nM

Structure (SMILES): CCCn1cnc2c1c(=O)n(CCCCC(C)=O)c(=O)n2C [Propentofylline]
EC50 [1, 6]: > 10000 nM

Structure (SMILES): O=CN(O)CCCP(=O)(O)O [Fosmidomycin]
EC50 [1, 6]: > 10000 nM

Structure (SMILES): CCN(CC)CCOc1ccc(C(O)(Cc2ccc(Cl)cc2)c2ccc(C)cc2)cc1 (centres unmarked) [Triparanol]
EC50 [1, 6]: > 10000 nM

Structure (SMILES): C[C@H](CCCC(C)(C)O)[C@H]1CC[C@H]2[C@@H]3CC=C4C[C@@H](O)CC[C@]4(C)[C@H]3CC[C@]12C [25-hydroxy-cholestero]
EC50 [1, 5]: > 12000 nM

Structure (SMILES): C=C(CC[C@]12O[C@H](C(=O)O)[C@@](O)(C(=O)O)[C@](C(=O)O)(O1)[C@H](OC(=O)/C=C/[C@@H](C)C[C@@H](C)CC)[C@H]2O)[C@@H](OC(C)=O)[C@H](C)Cc1ccccc1 [Zaragozic Acid A]
EC50 [1, 5]: 715 nM | CC50 (L929): > 30 µM

Structure (SMILES): CC(=O)CCCCn1c(=O)c2c(ncn2C)n(C)c1=O [Pentoxifylline (Trental), Pentoxifylline]
EC50 [1, 6]: > 10000 nM

EC50 (MSCs [3]; [11]): 0.464 nM | EC50 (MSCs [3]; [10]): 0.146 nM
Structure (SMILES): CC(=O)[C@@]1(O)CC[C@H]2[C@@H]3C[C@H](C)C4=CC(=O)C=C[C@]4(C)[C@@]3(F)[C@@H](O)C[C@@]21C [Fluorometholone]
EC50 [1, 7]: 0.319 nM | EC50 [1, 6]: 0.319 nM | CC50 [2]: > 5 µM | Max Osteogenic Response (MSCs [3]): 144 h

Structure (SMILES): CC(C)CCC[C@@H](C)[C@H]1CC[C@H]2[C@@H]3CC=C4C[C@@H](O)CC[C@]4(CO)[C@H]3CC[C@]12C [19-hydroxy-cholesterol]
EC50 [1, 6]: > 12000 nM

Structure (SMILES): O=C1C=C2C(=CCOC2O)O1 (centres unmarked) [Patulin]
EC50 ([1]; Mesenchymal stem cells, 144 h, primary human MSCs, exposure over 6 days, read-out: OI Assay (ALP) EC50): > 10000 nM

Structure (SMILES): CC(=O)OCC(=O)[C@@]1(O)CC[C@H]2[C@@H]3CCC4=CC(=O)CC[C@]4(C)[C@@]3(F)[C@@H](O)C[C@@]21C [Fludrocotisone actetate]
EC50 [1, 5]: 4.12 nM

EC50 (MSCs [3]; [11]): 0.787 nM | EC50 (MSCs [3]; [10]): 0.277 nM
Structure (SMILES): C[C@@H]1C[C@H]2[C@@H]3CCC4=CC(=O)C=C[C@]4(C)[C@@]3(F)[C@@H](O)C[C@]2(C)[C@@]1(O)C(=O)CO [Dexamethasone]
EC50 [1, 7]: 0.95 nM | EC50 [1, 6]: 0.95 nM | CC50 [2]: > 50 µM

EC50 (MSCs [3]; [8]): 47.9 nM | EC50 (MSCs [3]; [11]): 5.47 nM | EC50 (MSCs [3]; [9]): 4.48 nM | EC50 (MSCs [3]; [10]): 0.0533 nM
Structure (SMILES): CCCC1O[C@@H]2C[C@H]3[C@@H]4CCC5=CC(=O)C=C[C@]5(C)[C@H]4[C@@H](O)C[C@]3(C)[C@]2(C(=O)CO)O1 (some centres unmarked) [Budesonide]
EC50 [1, 7]: 0.296 nM | EC50 [1, 6]: 0.296 nM | CC50 [2]: > 30 µM | Max Osteogenic Response (MSCs [3]): 72 h

Structure (SMILES): CC(C)CC[C@@H](O)[C@@H](C)[C@H]1CC[C@H]2[C@@H]3CC=C4C[C@@H](O)CC[C@]4(C)[C@H]3CC[C@]12C [22(r)-hydroxy-cholesterol]
EC50 [1, 6]: 785 nM | CC50 [2]: > 12 µM

Structure (SMILES): CCCC(=O)Nc1ncnc2c1ncn2[C@@H]1O[C@@H]2COP(=O)(O)O[C@H]2[C@H]1OC(=O)CCC [dbcAMP]
EC50 [1, 5]: > 10000 nM
